# From patent publication US11999742B2, “Substituted pyrrolo[1,2-b]pyridazines as anthelmintics” (BOEHRINGER INGELHEIM VETMEDICA GMBH, priority 2021, dated 2024)
# Assays:
# [1] = system: Dirofilaria immitis (JYD-34 isolate); assay: In vivo efficacy against resistant JYD-34 isolate in immune-deficient NSG mice; settings: po, 1080 h, read-out: efficacy (live D. immitis larvae recovered), NSG mice, oral 25 mg/kg on Day 1, 15 and 30, count at Day 45
# [2] = system: Dirofilaria immitis (JYD-34 isolate); assay: In vivo efficacy against resistant JYD-34 isolate in beagle dogs (Biological Example 6); settings: necropsy day 120; for % Efficacy / Geometric Mean Live Heartworm Count: beagle dogs, JYD-34 isolate, 5 mg/kg oral, four times at monthly intervals (Days 0, 27, 55, 84); for efficacy against adult heartworm compared with Interceptor: beagles, oral 5 mg/kg four times at monthly intervals
# [3] = system: Dirofilaria immitis (JYD-34 isolate); assay: In vivo efficacy at two dosages against resistant JYD-34 isolate in beagle dogs (Biological Example 7); settings: for % Efficacy / Geometric Mean Live Heartworm Count: beagle dogs, JYD-34 isolate; for efficacy against adult heartworm: beagles
# [4] = system: Dirofilaria immitis (JYD-34 isolate); assay: In vivo efficacy against resistant JYD-34 isolate in beagle dogs (Biological Example 8); settings: for efficacy at preventing infections with adult heartworm: beagles
# [5] = 5 mg/kg single dose monthly for four months
# [6] = 10 mg/kg (over 2 consecutive days, 5 mg/kg each) monthly for four months
# [7] = 5 mg/kg monthly for four months on two consecutive days
# [8] = beagle dogs, JYD-34 isolate, 5 mg/kg monthly for four months
compound,measurement,setting,value
CC(C)(C)c1c(C(=O)N[C@H]2CCOc3ccccc32)cnn2c(-c3cc(F)cc(F)c3F)c(Cl)cc12 [Compound A486],inhibition in vivo at 25 mg/kg,[1],70 to 90%
Cc1cc2c(N3CCOCC3)c(C(=O)N[C@H]3CCOc4ccccc43)cnn2c1-c1cc(Cl)cc(Cl)c1Cl [Compound A501],inhibition in vivo at 25 mg/kg,[1],70 to 90%
Cc1cc2c(C(C)(C)C)c(C(=O)N[C@H]3CCOc4ccccc43)cnn2c1-c1cc(F)cc(F)c1F [Compound A566],inhibition in vivo at 25 mg/kg,[1],70 to 90%
Cc1cc2c(N3CC(F)(F)C3)c(C(=O)N[C@H]3CCOc4ccccc43)cnn2c1-c1cc(F)cc(Cl)c1Cl [Compound A504],inhibition in vivo at 25 mg/kg,[1],> 90%
Cc1cc2c(N3CCOCC3)c(C(=O)N[C@H]3CCOc4ccccc43)cnn2c1-c1cc(F)cc(F)c1F [Compound A491],inhibition in vivo at 25 mg/kg,[1],< 50%
CC(C)(C)c1c(C(=O)N[C@H]2CCOc3ccccc32)cnn2c(-c3cc(Cl)cc(Cl)c3Cl)c(Cl)cc12 [Compound A522],inhibition in vivo at 25 mg/kg,[1],> 90%
CC(C)(C)c1c(C(=O)N[C@H]2CCOc3ccccc32)cnn2c(-c3c(F)cc(F)cc3F)c(Cl)cc12 [Compound A484],inhibition in vivo at 25 mg/kg,[1],50 to 70%
CN(C)c1c(C(=O)N[C@H]2CCOc3ccccc32)cnn2c(-c3cc(Cl)cc(Cl)c3Cl)c(Cl)cc12 [Compound A473],inhibition in vivo at 25 mg/kg,[1],> 90%
"CC(C)(C)c1c(C(=O)N[C@H]2CCOc3ccccc32)cnn2c(-c3cc(F)cc(Cl)c3Cl)c(Cl)cc12 [Compound A502, 4-tert-butyl-6-chloro-7-(2,3-dichloro-5-fluorophenyl)-N-[(4S)-3,4-dihydro-2H-1-benzopyran-4-yl]pyrrolo[1,2-b]pyridazine-3-carboxamide]",inhibition in vivo at 25 mg/kg,[1],70 to 90%
Cc1cc2c(C(C)(C)C)c(C(=O)N[C@H]3CCOc4ccccc43)cnn2c1-c1cc(Cl)cc(Cl)c1 [Compound A464],% Efficacy,[2],38.2%
same,Geometric Mean Live Heartworm Count,[2],16.7
same,efficacy against adult heartworm compared with Interceptor,[2],more effective than the commercial product Interceptor™
same,inhibition in vivo at 25 mg/kg,[1],70 to 90%
"Cc1cc2c(N(C)C)c(C(=O)N[C@H]3CCOc4ccccc43)cnn2c1-c1cc(F)cc(Cl)c1Cl [Compound A493, 7-(2,3-dichloro-5-fluorophenyl)-N-[(4S)-3,4-dihydro-2H-1-benzopyran-4-yl]-4-(dimethylamino)-6-methylpyrrolo[1,2-b]pyridazine-3-carboxamide]",% Efficacy,[3]; [5],99.0%
same,Geometric Mean Live Heartworm Count,[3]; [5],0.3
same,% Efficacy,[3]; [6],100.0%
same,Geometric Mean Live Heartworm Count,[3]; [6],0
same,efficacy against adult heartworm,[3]; [7],100%
same,efficacy against adult heartworm,[3]; one single dosage of 5 mg/kg monthly for four months,99%
same,inhibition in vivo at 25 mg/kg,[1],> 90%
"Cc1cc2c(C(C)(C)C)c(C(=O)N[C@H]3CCOc4ccccc43)cnn2c1-c1cc(F)cc(Cl)c1Cl [Compound A481, 4-tert-butyl-7-(2,3-dichloro-5-fluorophenyl)-N-[(4S)-3,4-dihydro-2H-1-benzopyran-4-yl]-6-methylpyrrolo[1,2-b]pyridazine-3-carboxamide]",% Efficacy,[3]; [5],64.2%
same,Geometric Mean Live Heartworm Count,[3]; [5],11.3
same,% Efficacy,[3]; [6],98.0%
same,Geometric Mean Live Heartworm Count,[3]; [6],0.6
same,efficacy against adult heartworm,[3]; [7],about 98%
same,inhibition in vivo at 25 mg/kg,[1],70 to 90%
O=C(N[C@H]1CCOc2ccccc21)c1cnn2c(-c3cc(F)cc(Cl)c3Cl)c(Cl)cc2c1N1CC(F)(F)C1 [Compound A507],inhibition in vivo at 25 mg/kg,[1],> 90%
Cc1cc2c(C(C)(C)C)c(C(=O)N[C@H]3CCOc4ccccc43)cnn2c1-c1cc(Cl)cc(Cl)c1Cl [Compound A472],% Efficacy,[4]; [8],100.0%
same,Live Heartworm Count (geo. mean),[4]; [8],0
same,efficacy at preventing infections with adult heartworm,[4]; 5 mg/kg body weight monthly for four months,100%
same,inhibition in vivo at 25 mg/kg,[1],> 90%
Cc1cc2c(C(C)(C)C)c(C(=O)N[C@H]3CCOc4ccccc43)cnn2c1-c1cc(F)cc(F)c1F [Compound A471],% Efficacy,[2],39.0%
same,Geometric Mean Live Heartworm Count,[2],16.5
same,efficacy against adult heartworm compared with Interceptor,[2],more effective than the commercial product Interceptor™
milbemycin oxime [reference compound],efficacy at preventing infections with adult heartworm,[4]; Interceptor (milbemycin oxime) positive control group,16.6%
Cc1cc2c(C(C)C)c(C(=O)N[C@H]3CCOc4ccccc43)cnn2c1-c1cc(F)cc(Cl)c1Cl [Compound A489],inhibition in vivo at 25 mg/kg,[1],70 to 90%
"Cc1cc2c(C(C)C)c(C(=O)N[C@H]3CCOc4ccccc43)cnn2c1-c1cc(Cl)cc(Cl)c1 [Compound A465, 7-(3,5-dichlorophenyl)-N-[(4S)-3,4-dihydro-2H-1-benzopyran-4-yl]-6-methyl-4-(propan-2-yl)pyrrolo[1,2-b]pyridazine-3-carboxamide]",inhibition in vivo at 25 mg/kg,[1],50 to 70%
Cc1cc2c(C(C)(C)C)c(C(=O)NN3CCOc4ccccc43)cnn2c1-c1cc(F)cc(Cl)c1Cl [Compound A495],inhibition in vivo at 25 mg/kg,[1],50 to 70%
